# Source: US20220026415A1, “A METHOD FOR SCREENING A THERAPEUTIC AGENT FOR CANCER USING BINDING INHIBITOR OF CYCLIN-DEPENDENT KINASE 1 (CDK1)-CYCLIN B1 AND RETINOIC ACID RECEPTOR RESPONDER 1 (RARRES1) GENE KNOCKOUT ANIMAL MODEL” (NATIONAL CANCER CENTER, priority 2018, published 2022)
# Where a SMILES comes first, the peptide text is derived from it. The star is where a group is joined. Cbz = O=C(OCc1ccccc1)*
# How the values were obtained:
# CDK1 protein = assay: Amount of CDK1 protein in cells transfected with RARRES1 and CDK1, treated with protein degradation inhibitors; format: cell-based; settings: cells transfected with RARRES1 along with CDK1
# Experimental: […]
# In addition, when cells were transfected with RARRES1 along with CDK1 using the method of Example 1-1, the amount of the CDK1 protein was reduced. To examine how a quantitative change in the CDK1 protein was regulated, cells were treated with protein degradation inhibitors.
# Rarres1 KO MEFs = assay: Nocodazole treatment of MEFs, flow cytometry, cell counting and western blotting; format: cell-based, mouse
# Experimental: For analysis of cell cycles or sub-G1 DNA contents, cells were immobilized with 80% ice-cold ethanol, and stored at 4° C. The cells were stained with PBS containing 50 ug/ml of propidium iodide (PI) and 100 ug/ml of RNase A at 37° C. for 30 minutes. DNA content was analyzed by FACS Calibur flow cytometry and the results thereof were analyzed using Cellquest software (Becton-Dickinson Immunocytometry Systems, San Diego, Calif.) and Modfit LT 3.3 software. At least 10,000 cells were analyzed per sample.
# Growth was examined using MEFs derived from 13.5-day-old embryos. Cells were plated on a 6-well plate at a density of 20,000 cells/well, and then the number of the cells was counted every day from the following day for 5 days. To examine cell survival in response to nocodazole, which is a cell division inhibitor, cells were treated with 50 ng/ml or 100 ng/ml of nocodazole for 48 hours and cultured. Subsequently, the cells were treated with trypsin/EDTA and detached, followed by cell counting.
# It was determined whether a mitotic stress-inducing drug such as nocodazole affects Rarres1 KO MEFs. MEF cells were treated with nocodazole (50 ng/ml or 100 ng/ml) or DMSO for 48 hours, and flow cytometry and cell counting according to Example 1-10 were performed thereon.
# RARRES1 expression = assay: Restoration of RARRES1 expression by DNA methylation inhibitor, RT-PCR; format: cell-based, human; settings: for tested cell lines showing restored RARRES1 expression in a dose-dependent manner: 5, 25 and 100 uM for 5 days
# Experimental: Total RNA was extracted from human cancer cell lines including prostate cancer, lung cancer, and breast cancer by using a TRIzol reagent (Invitrogen) according to the manufacturer's instructions, and 1 ug of total RNA was converted into cDNA with a Superscript® reverse transcriptase (Invitrogen). Primers used for human DNA were as follows: RARRES1-1-F ([…]), RARRES1-1-R ([…]), RARRES1-2-F ([…]), RARRES1-2-R ([…]), Cyclin B1-F ([…]), Cyclin B1-R ([…]), Actin-F ([…]), and Actin-R ([…]), and the primers respectively yielded PCR products with predicted sizes of 327 bp, 359 bp, 347 bp, and 626 bp. Primers used for mouse DNA were as follows: Rarres1-F([…]), Rarres1-R ([…]), Gapdh-F (TGCACCACCAACTGCTTA), and Gapdh-R (GGATGCAGGGATGATGTTC), and these primers respectively yielded PCR products with predicted sizes of 653 bp and 177 bp.
# To determine whether promoter methylation was associated with the silencing of the RARRES1 expression in cancer cells, cells were treated with 5-aza-2′-deoxycytidine (5-aza-2-dC; 5, 25, and 100 uM) as an inhibitor of DNA methylation for 5 days.
# [1] = tested on: embryonic epithelial cells; assay: Spheroid-formation assay with or without CDK1 inhibitor; format: cell-based, mouse
# Experimental: Mouse embryo fibroblasts (MEFs) and mouse embryo epithelial cells (MEEs) were derived from 13.5-day-old embryos as previously described. That is, after removal of the head and internal organs, embryos were rinsed with phosphate buffered saline (PBS), minced, and treated with trypsin/EDTA to obtain single cells. The MEFs was resuspended in DMEM containing 10% FBS, 2 mM L-glutamine, 0.1 mM MEM nonessential amino acids, 55 uM beta-mercaptoethanol, and 100 IU/ml penicillin, and 100 ug/ml streptomycin. Cell media and reagents were obtained from GIBCO (Paisley, England). The MEEs were cultured in a D-MEM/F-12 medium containing 1% FBS, 1 mg of insulin, 1 mg of hydrocortisone, 12.5 μg of EGF, 10 mg of ascorbic acid, 10 mg of transferin, 14.1 mg of phosphoethanolamine, Na selenite, 1 μg of cholera toxin, 6.5 μg of triiodo thyronine, 35 mg of bovine pituitary extract, ethanolamine, 50 IU/ml of penicillin, and 50 ug/ml of streptomycin. The cells were incubated at 37° C. in a 5% CO2-humidified chamber. After disintegration of the embryos, plating was considered passage 0. All experiments were carried out using cells within passage 5 from three different batches. The genotypes of the MEFs and MEEs were confirmed by genotyping PCR. At least three independently generated cell lines per genotype were used.
# In spheroid-formation assay, as mentioned above, advanced DMEM/F12 media used for embryonic epithelial cell culture were employed. The cells from the embryo of Rarres1^+/+ and Rarres1^−/− mice were suspended and seeded in […] with or without RO3306, CDK1 inhibitor, in a 24-well plate at a density of 2,000 or 5,000 cells per well. The size and number of spheres formed while adding 300 μl of a medium once three to four days were measured.
# [2] = some cancer cells (CWR22rv, T47D)
smiles,measurement,setting,value
"CO/C1=C\C(C)=C\[C@@H](C)[C@@H](O)[C@@H](C)C/C(C)=C/C=C/[C@H](OC)[C@@H]([C@@H](C)[C@@H](O)[C@H](C)[C@@]2(O)C[C@@H](O)[C@H](C)[C@@H](C(C)C)O2)OC1=O [BafA1, Bafilomycin A1]","amount of the CDK1 protein, which had been decreased by RARRES1",CDK1 protein,increased again
CC(C)C[C@@H](C=O)NC(=O)[C@H](CC(C)C)NC(=O)[C@H](CC(C)C)NC(=O)OCc1ccccc1 [MG132] (Cbz-Leu-Leu-Leu-aldehyde),"amount of the CDK1 protein, which had been decreased by RARRES1",CDK1 protein,still decreased
COC(=O)Nc1nc2ccc(C(=O)c3cccs3)cc2[nH]1 [nocodazole],cleavage of PARP and Caspase 3,"Rarres1 KO MEFs; KO cells compared to WT cells, nocodazole treated",decreased
same,number of the cells after nocodazole treatment,"Rarres1 KO MEFs; Rarres1-deficient MEFs versus WT MEFs, 50 or 100 ng/ml, 48 hours",less reduced
same,cell death induced by nocodazole,"Rarres1 KO MEFs; Rarres1-deficient MEFs versus WT MEFs, 50 or 100 ng/ml, 48 hours, dose-dependent",significantly reduced
"Nc1ncn([C@H]2C[C@H](O)[C@@H](CO)O2)c(=O)n1 [5-aza-2-dC, 5-aza-2′-deoxycytidine]",RARRES1 expression after treatment,RARRES1 expression; Calu3 and HCC70 cells having high mRNA levels of RARRES1,failed to have reintroduced RARRES1 expression
same,mRNA level of the RARRES1 gene after treatment,RARRES1 expression; JIMT-1 cells,reduced
same,tested cell lines showing restored RARRES1 expression in a dose-dependent manner,RARRES1 expression; breast cancer cell lines (8/10),80%
same,tested cell lines showing restored RARRES1 expression in a dose-dependent manner,RARRES1 expression; lung cancer cell lines (4/5),80%
same,tested cell lines showing restored RARRES1 expression in a dose-dependent manner,RARRES1 expression; prostate cancer cell lines (4/4),100%
same,RARRES1 isoform 1 after treatment,RARRES1 expression; [2],increased
same,RARRES1 isoform 2 after treatment,RARRES1 expression; [2],not detected
O=C1NC(=NCc2cccs2)S/C1=C\c1ccc2ncccc2c1 [RO3306],overall spheroid formation,"[1]; RO3306-treated versus not treated, cells from Rarres1+/+ and Rarres1-/- embryos",significantly reduced
same,sphere formation under RO3306,[1]; embryonic epithelial cells from Rarres1-deficient mice,formed spheres
same,sphere formation under RO3306,[1]; embryonic epithelial cells of the control mice,barely formed spheres
